The results in this text go back to patent US11377442B2, “Small molecule agonists and antagonists of NR2F6 activity” (ZANDER THERAPEUTICS, INC., priority 2016, dated 2022).

In the assay the target is T1, NR2F6 (Homo sapiens, UniProt P10588).
T1 construct: expressed in transfected cells; also transient transfection
T1 sequence (P10588 1-404): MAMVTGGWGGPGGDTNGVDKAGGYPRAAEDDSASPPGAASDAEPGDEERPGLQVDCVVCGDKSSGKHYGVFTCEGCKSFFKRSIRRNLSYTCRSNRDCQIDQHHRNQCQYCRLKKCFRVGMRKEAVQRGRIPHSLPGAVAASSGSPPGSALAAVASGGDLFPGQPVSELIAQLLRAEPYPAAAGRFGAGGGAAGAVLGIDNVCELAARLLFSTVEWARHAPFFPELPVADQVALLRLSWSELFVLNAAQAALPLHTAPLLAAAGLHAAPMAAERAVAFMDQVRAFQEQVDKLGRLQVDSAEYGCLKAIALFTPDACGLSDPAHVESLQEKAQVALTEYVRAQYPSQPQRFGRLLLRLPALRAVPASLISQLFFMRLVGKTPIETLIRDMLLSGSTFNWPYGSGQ
As to the kind of experiment: NR2F6 agonist screening, Firefly signal cmpd/DMSO. Type of assay: cell-based. Particulars: for Firefly/Renilla (NR2F6 stable, clone F4): ratio Firefly/Renilla; for Firefly, NR2F6 stable (clone F4)/pGL4: ratio of Firefly in NR2F6 stable clone F4 to pGL4.

[1] abbreviates: C11 analogs follow set (Tables 2-10).

Regarding `O=c1oc2ccc(F)cc2cc1S(=O)(=O)c1ccc(Cl)cc1` [Compound C218], under setting [1], the “Firefly, cmpd/DMSO repeat 1” value turned out to be 18.2 and the “Firefly, cmpd/DMSO repeat 2” value amounted to 19.1. Under “Table 12”, the “Firefly/Renilla (NR2F6 stable, clone F4)” value turned out to be 1.7; the “Firefly, NR2F6 stable (clone F4)/pGL4” value stood at 9.5; the “Firefly, cmpd/DMSO repeat 1” value was 18.2; the “Firefly, cmpd/DMSO repeat 2” value stood at 19.1.

Consider `O=c1oc2ccc(Br)cc2cc1S(=O)(=O)c1ccccc1F` [Compound C219], for which, under setting [1], the “Firefly, cmpd/DMSO repeat 1” value is reported as 1.3 and the “Firefly, cmpd/DMSO repeat 2” value was found to be 2.5.

Consider `O=c1oc2ccc(Cl)cc2cc1S(=O)(=O)c1ccccc1F` [Compound C220], for which, under setting [1], the “Firefly, cmpd/DMSO repeat 1” value was found to be 10.4 and the “Firefly, cmpd/DMSO repeat 2” value was 6.5. Also, where the note is “Table 13”, the “Firefly/Renilla (NR2F6 stable, clone F4)” value was 1.1; the “Firefly, NR2F6 stable (clone F4)/pGL4” value is recorded as 6.2; the “Firefly, cmpd/DMSO repeat 1” value is 10.4; the “Firefly, cmpd/DMSO repeat 2” value is on record as 6.5.

For `COc1ccc2oc(=O)c(S(=O)(=O)c3ccccc3F)cc2c1` [Compound C221], under setting [1], the “Firefly, cmpd/DMSO repeat 1” value turned out to be 1.3 and the “Firefly, cmpd/DMSO repeat 2” value is given as 0.9.

With `COc1ccc2oc(=O)c(S(=O)(=O)c3cccc(Cl)c3)cc2c1` [Compound C222], under setting [1], the “Firefly, cmpd/DMSO repeat 1” value came out at 4.5 and the “Firefly, cmpd/DMSO repeat 2” value worked out at 3.7. Where the note is “Table 13”, the “Firefly/Renilla (NR2F6 stable, clone F4)” value is reported as 2.0; the “Firefly, NR2F6 stable (clone F4)/pGL4” value was determined as 3.6; the “Firefly, cmpd/DMSO repeat 1” value worked out at 4.5; the “Firefly, cmpd/DMSO repeat 2” value is 3.7.

Take `Cc1cc(S(=O)(=O)c2cc3cc(Br)ccc3oc2=O)ccc1F` [Compound C223]: under setting [1], the “Firefly, cmpd/DMSO repeat 1” value came out at 4.5 and the “Firefly, cmpd/DMSO repeat 2” value was found to be 5.1.

With `Cc1cc(S(=O)(=O)c2cc3cc(Cl)ccc3oc2=O)ccc1F` [Compound C224], under setting [1], the “Firefly, cmpd/DMSO repeat 1” value is reported as 6.6 and the “Firefly, cmpd/DMSO repeat 2” value stood at 11.4.

On to `COc1ccc2oc(=O)c(S(=O)(=O)c3ccc(F)c(C)c3)cc2c1` [Compound C225], for which, under setting [1], the “Firefly, cmpd/DMSO repeat 1” value is 1.5 and the “Firefly, cmpd/DMSO repeat 2” value was found to be 3.1.

Take `COc1cccc(S(=O)(=O)c2cc3cccc(OC)c3oc2=O)c1` [Compound C226]: where the note is “Table 9”, the “Firefly, cmpd/DMSO repeat 1” value was 1.1 and the “Firefly, cmpd/DMSO repeat 2” value came to 1.0.

Regarding `COc1cccc2cc(S(=O)(=O)c3cc(C)cc(C)c3)c(=O)oc12` [Compound C227], for the setting “Table 9”, the “Firefly, cmpd/DMSO repeat 1” value worked out at 1.0 and the “Firefly, cmpd/DMSO repeat 2” value is recorded as 1.3.

On to `COc1cccc2cc(S(=O)(=O)c3ccc(C)c(Cl)c3)c(=O)oc12` [Compound C228], for which, under “Table 9”, the “Firefly, cmpd/DMSO repeat 1” value amounted to 1.0 and the “Firefly, cmpd/DMSO repeat 2” value was found to be 1.3.

Regarding `COc1cccc2cc(S(=O)(=O)c3cc(F)cc(F)c3)c(=O)oc12` [Compound C229], where the note is “Table 9”, the “Firefly, cmpd/DMSO repeat 1” value is recorded as 2.9 and the “Firefly, cmpd/DMSO repeat 2” value came to 1.8.

Regarding `CCOc1cccc2cc(S(=O)(=O)c3cc(F)cc(F)c3)c(=O)oc12` [Compound C230], for the setting “Table 9”, the “Firefly, cmpd/DMSO repeat 1” value amounted to 12.5 and the “Firefly, cmpd/DMSO repeat 2” value was found to be 8.3. For the setting “Table 12”, the “Firefly/Renilla (NR2F6 stable, clone F4)” value came to 2.5; the “Firefly, NR2F6 stable (clone F4)/pGL4” value came to 6.5; the “Firefly, cmpd/DMSO repeat 1” value is 12.5; the “Firefly, cmpd/DMSO repeat 2” value stood at 8.3.

For `COc1cccc2cc(S(=O)(=O)c3ccc(C)cc3)c(=O)oc12` [Compound C231], for the setting “Table 9”, the “Firefly, cmpd/DMSO repeat 1” value came to 0.7 and the “Firefly, cmpd/DMSO repeat 2” value was 0.9.

Regarding `COc1ccc(S(=O)(=O)c2cc3cccc(OC)c3oc2=O)cc1` [Compound C232], for the setting “Table 9”, the “Firefly, cmpd/DMSO repeat 1” value came out at 1.0 and the “Firefly, cmpd/DMSO repeat 2” value is 0.9.

Take `COc1cccc2cc(S(=O)(=O)c3ccc(Br)cc3)c(=O)oc12` [Compound C233]: under “Table 9”, the “Firefly, cmpd/DMSO repeat 1” value came to 2.8 and the “Firefly, cmpd/DMSO repeat 2” value is recorded as 2.1.

As to `COc1cccc2cc(S(=O)(=O)c3ccc(C(C)(C)C)cc3)c(=O)oc12` [Compound C234], where the note is “Table 9”, the “Firefly, cmpd/DMSO repeat 1” value amounted to 2.2 and the “Firefly, cmpd/DMSO repeat 2” value was determined as 1.8.

Turning to `CCOc1cccc2cc(S(=O)(=O)c3ccc(C)cc3)c(=O)oc12` [Compound C236], where the note is “Table 9”, the “Firefly, cmpd/DMSO repeat 1” value is on record as 4.4 and the “Firefly, cmpd/DMSO repeat 2” value was 4.9.

In the case of `CCOc1cccc2cc(S(=O)(=O)c3ccc(F)cc3)c(=O)oc12` [Compound C237], where the note is “Table 9”, the “Firefly, cmpd/DMSO repeat 1” value turned out to be 3.5 and the “Firefly, cmpd/DMSO repeat 2” value turned out to be 2.9.

As to `CCOc1cccc2cc(S(=O)(=O)c3ccc(Br)cc3)c(=O)oc12` [Compound C239], under “Table 9”, the “Firefly, cmpd/DMSO repeat 1” value is listed as 1.4 and the “Firefly, cmpd/DMSO repeat 2” value was 2.2.

For the molecule `CCOc1cccc2cc(S(=O)(=O)c3ccc(C(C)(C)C)cc3)c(=O)oc12` [Compound C240], under “Table 9”, the “Firefly, cmpd/DMSO repeat 1” value is reported as 1.5 and the “Firefly, cmpd/DMSO repeat 2” value is given as 0.9.

Turning to `COc1cccc2cc(S(=O)(=O)c3ccc(C(C)C)cc3)c(=O)oc12` [Compound C241], for the setting “Table 9”, the “Firefly, cmpd/DMSO repeat 1” value stood at 2.1 and the “Firefly, cmpd/DMSO repeat 2” value stood at 2.7.

In the case of `COc1cccc2cc(S(=O)(=O)c3ccc(C)c(C)c3)c(=O)oc12` [Compound C242], for the setting “Table 9”, the “Firefly, cmpd/DMSO repeat 1” value turned out to be 1.1 and the “Firefly, cmpd/DMSO repeat 2” value was determined as 1.1.

As to `CCOc1cccc2cc(S(=O)(=O)c3ccc(C)c(C)c3)c(=O)oc12` [Compound C243], under “Table 9”, the “Firefly, cmpd/DMSO repeat 1” value is 2.0 and the “Firefly, cmpd/DMSO repeat 2” value was determined as 3.3.

In the case of `CCOc1cccc2cc(S(=O)(=O)c3ccc(Cl)cc3)c(=O)oc12` [Compound C244], under “Table 9”, the “Firefly, cmpd/DMSO repeat 1” value is listed as 9.7 and the “Firefly, cmpd/DMSO repeat 2” value amounted to 14.1.

Regarding `COc1cccc2cc(S(=O)(=O)c3ccc(Cl)c(Cl)c3)c(=O)oc12` [Compound C245], under “Table 9”, the “Firefly, cmpd/DMSO repeat 1” value worked out at 1.9 and the “Firefly, cmpd/DMSO repeat 2” value is reported as 1.3.

As for `CCOc1cccc2cc(S(=O)(=O)c3ccc(Cl)c(Cl)c3)c(=O)oc12` [Compound C246], under “Table 9”, the “Firefly, cmpd/DMSO repeat 1” value is reported as 7.4 and the “Firefly, cmpd/DMSO repeat 2” value is listed as 6.5.

Regarding `COc1ccc(S(=O)(=O)c2cc3cccc(OC)c3oc2=O)cc1OC` [Compound C247], where the note is “Table 9”, the “Firefly, cmpd/DMSO repeat 1” value is reported as 2.2 and the “Firefly, cmpd/DMSO repeat 2” value came out at 1.6.

Turning to `CCOc1cccc2cc(S(=O)(=O)c3ccc(OC)c(OC)c3)c(=O)oc12` [Compound C248], under “Table 9”, the “Firefly, cmpd/DMSO repeat 1” value is given as 8.6 and the “Firefly, cmpd/DMSO repeat 2” value is 4.3. Under “Table 12”, the “Firefly/Renilla (NR2F6 stable, clone F4)” value is given as 2.8; the “Firefly, NR2F6 stable (clone F4)/pGL4” value turned out to be 4.6; the “Firefly, cmpd/DMSO repeat 1” value amounted to 8.6; the “Firefly, cmpd/DMSO repeat 2” value is listed as 4.3.

On to `COc1ccc(OC)c(S(=O)(=O)c2cc3cccc(OC)c3oc2=O)c1` [Compound C249], for which, for the setting “Table 9”, the “Firefly, cmpd/DMSO repeat 1” value stood at 1.4 and the “Firefly, cmpd/DMSO repeat 2” value is listed as 1.5.

On to `COc1cccc2cc(S(=O)(=O)c3ccc(F)c(Cl)c3)c(=O)oc12` [Compound C250], for which, for the setting “Table 9”, the “Firefly, cmpd/DMSO repeat 1” value is recorded as 1.2 and the “Firefly, cmpd/DMSO repeat 2” value was determined as 1.8.

In the case of `CCOc1cccc2cc(S(=O)(=O)c3ccc(F)c(Cl)c3)c(=O)oc12` [Compound C251], for the setting “Table 9”, the “Firefly, cmpd/DMSO repeat 1” value is reported as 2.1 and the “Firefly, cmpd/DMSO repeat 2” value is given as 1.9.

For `CCOc1ccc(S(=O)(=O)c2cc3cccc(OCC)c3oc2=O)cc1` [Compound C252], under “Table 9”, the “Firefly, cmpd/DMSO repeat 1” value is recorded as 3.2 and the “Firefly, cmpd/DMSO repeat 2” value is 2.4.

Consider `COc1cccc2cc(S(=O)(=O)c3ccccc3F)c(=O)oc12` [Compound C253], for which, under “Table 9”, the “Firefly, cmpd/DMSO repeat 1” value is 2.5 and the “Firefly, cmpd/DMSO repeat 2” value is listed as 2.7.

Consider `CCOc1cccc2cc(S(=O)(=O)c3ccccc3F)c(=O)oc12` [Compound C254], for which, for the setting “Table 9”, the “Firefly, cmpd/DMSO repeat 1” value came to 7.6 and the “Firefly, cmpd/DMSO repeat 2” value was 5.1. In addition, for the setting “Table 12”, the “Firefly/Renilla (NR2F6 stable, clone F4)” value is reported as 2.4; the “Firefly, NR2F6 stable (clone F4)/pGL4” value worked out at 4.4; the “Firefly, cmpd/DMSO repeat 1” value is 7.6; the “Firefly, cmpd/DMSO repeat 2” value amounted to 5.1.

In the case of `COc1cccc2cc(S(=O)(=O)c3cccc(Cl)c3)c(=O)oc12` [Compound C255], where the note is “Table 9”, the “Firefly, cmpd/DMSO repeat 1” value was determined as 1.5 and the “Firefly, cmpd/DMSO repeat 2” value stood at 1.5.

`CCOc1cccc2cc(S(=O)(=O)c3cccc(Cl)c3)c(=O)oc12` [Compound C256]: under “Table 9”, the “Firefly, cmpd/DMSO repeat 1” value was 11.5 and the “Firefly, cmpd/DMSO repeat 2” value came out at 7.9. Where the note is “Table 12”, the “Firefly/Renilla (NR2F6 stable, clone F4)” value amounted to 2.3; the “Firefly, NR2F6 stable (clone F4)/pGL4” value was found to be 4.5; the “Firefly, cmpd/DMSO repeat 1” value is reported as 11.5; the “Firefly, cmpd/DMSO repeat 2” value is given as 7.9.

Regarding `COc1cccc2cc(S(=O)(=O)c3ccc(F)c(C)c3)c(=O)oc12` [Compound C257], where the note is “Table 9”, the “Firefly, cmpd/DMSO repeat 1” value was 2.1 and the “Firefly, cmpd/DMSO repeat 2” value worked out at 1.6.

Turning to `CCOc1cccc2cc(S(=O)(=O)c3ccc(F)c(C)c3)c(=O)oc12` [Compound C258], under “Table 9”, the “Firefly, cmpd/DMSO repeat 1” value stood at 1.5 and the “Firefly, cmpd/DMSO repeat 2” value is 1.8.

For the molecule `COc1cccc(S(=O)(=O)c2cc3ccc(OC)cc3oc2=O)c1` [Compound C259], under setting [1], the “Firefly, cmpd/DMSO repeat 1” value worked out at 1.3 and the “Firefly, cmpd/DMSO repeat 2” value turned out to be 1.9.

Turning to `COc1ccc2cc(S(=O)(=O)c3cc(C)cc(C)c3)c(=O)oc2c1` [Compound C260], under setting [1], the “Firefly, cmpd/DMSO repeat 1” value came to 1.0 and the “Firefly, cmpd/DMSO repeat 2” value worked out at 1.0.
